Experimental data reported in publication PMC6095608 (PLoS ONE, 2018).

Tests used:
MATE1 = target: T1, MATE1 (Homo sapiens, UniProt Q96FL8); assay: Inhibition of net [14C]-metformin uptake in MDCK-MATE1 cells; type: cell-based; settings: 50 μM metformin, 5 min, pH 8.0, efavirenz 0.01–50 μM, read-out: IC50, inhibition of net MATE1-mediated [14C]-metformin uptake
T1 construct: expressed in transfected cells; host or cells: MDCKII (MDCK-MATE1)
Method: The singly-transfected OCT1, OCT2, MATE1 or control MDCK cells were seeded on 12-well plates at a density of 0.5 x 10^6 cells per well and cultivated in standard cultivation medium MEM (Gibco) + 10% FBS. Forty-eight hours after seeding, uptake experiments with radiolabelled metformin were performed. Cells were washed with 500 μl pre-warmed HBSS buffer of pH 7.4 (for OCTs) or 8.0 (for MATE1). Solutions of [^14C]-metformin (50 μM) in HBSS buffer of pH 7.4 or 8.0 with or without efavirenz were then added, and the resulting mixtures were left to stand for an accumulation period of 5 minutes. […] After the accumulation period, the solutions were aspirated and the cells were washed three times with 500 μl ice-cold HBSS buffer of pH 7.4 or 8.0 before being lysed with 0.02% sodium dodecyl sulphate (SDS). The intracellular accumulation of radioactivity was detected using a liquid scintillation counter (Tri-Carb 2910 TR Perkin Elmer), and protein concentrations in the cell lysates were measured by the BCA protein assay. Net transporter-mediated uptake was obtained by subtracting the accumulation of metformin in vector control cells from that in drug transporter-overexpressing cells.
A p value of ≤ 0.05 was considered statistically significant. […]

MATE2-K = target: T2, MATE2-K (Homo sapiens, UniProt Q86VL8); assay: Inhibition of net [14C]-metformin uptake in HEK-MATE2-K cells; type: cell-based; settings: HEK 293 cells expressing MATE2-K (HEK-MATE2-K), probe [14C]-metformin (50 μM), 50 μM efavirenz (highest tested), 50 μM metformin, p = 0.119, read-out: Inhibition of MATE2-K-mediated metformin transport
T2 construct: expressed in transfected cells; host or cells: HEK293 (transient, HEK-MATE2-K)
T2 sequence (Q86VL8 1-566 isoform Q86VL8-3): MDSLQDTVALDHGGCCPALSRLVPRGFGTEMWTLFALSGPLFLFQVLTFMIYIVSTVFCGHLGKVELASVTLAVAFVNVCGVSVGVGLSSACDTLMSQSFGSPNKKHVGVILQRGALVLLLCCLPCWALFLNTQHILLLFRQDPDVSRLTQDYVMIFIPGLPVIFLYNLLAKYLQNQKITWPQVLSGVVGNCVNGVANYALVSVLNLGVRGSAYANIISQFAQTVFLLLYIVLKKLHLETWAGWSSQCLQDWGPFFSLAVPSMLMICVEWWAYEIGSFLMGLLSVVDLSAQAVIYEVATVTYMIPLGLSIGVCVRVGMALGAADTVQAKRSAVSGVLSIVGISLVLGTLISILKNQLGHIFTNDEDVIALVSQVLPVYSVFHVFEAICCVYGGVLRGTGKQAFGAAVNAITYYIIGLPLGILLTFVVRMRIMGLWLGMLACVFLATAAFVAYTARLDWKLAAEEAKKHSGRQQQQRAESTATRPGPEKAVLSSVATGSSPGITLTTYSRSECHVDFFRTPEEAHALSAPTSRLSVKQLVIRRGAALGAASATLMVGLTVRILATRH
Method: Experiments on the uptake of metformin in HEK 293-cells mediated by MATE2-K were performed as previously described. The number of cells per well was 7.0x10^5 for HEK-MATE2-K cells and 3.5x10^5 for HEK-Co cells to compensate for differences in protein concentration in the two lines. To determine the inhibitory effect of efavirenz, this drug was added to the [^14C]-metformin (50 μM) incubation medium at concentrations of 0.01 μM, 0.1 μM, 1 μM, 5 μM, 10 μM, 25 μM, or 50 μM. […] The net uptake was then calculated as described above.

OCT2 = target: T3, OCT2 (Homo sapiens, UniProt O15244); assay: Transcellular transport assay across MDCK-OCT2 monolayers; type: cell-based; settings: 10 μM efavirenz, 2 h
T3 construct: expressed in transfected cells; host or cells: MDCKII (MDCK-OCT2)
T3 sequence (O15244 1-555): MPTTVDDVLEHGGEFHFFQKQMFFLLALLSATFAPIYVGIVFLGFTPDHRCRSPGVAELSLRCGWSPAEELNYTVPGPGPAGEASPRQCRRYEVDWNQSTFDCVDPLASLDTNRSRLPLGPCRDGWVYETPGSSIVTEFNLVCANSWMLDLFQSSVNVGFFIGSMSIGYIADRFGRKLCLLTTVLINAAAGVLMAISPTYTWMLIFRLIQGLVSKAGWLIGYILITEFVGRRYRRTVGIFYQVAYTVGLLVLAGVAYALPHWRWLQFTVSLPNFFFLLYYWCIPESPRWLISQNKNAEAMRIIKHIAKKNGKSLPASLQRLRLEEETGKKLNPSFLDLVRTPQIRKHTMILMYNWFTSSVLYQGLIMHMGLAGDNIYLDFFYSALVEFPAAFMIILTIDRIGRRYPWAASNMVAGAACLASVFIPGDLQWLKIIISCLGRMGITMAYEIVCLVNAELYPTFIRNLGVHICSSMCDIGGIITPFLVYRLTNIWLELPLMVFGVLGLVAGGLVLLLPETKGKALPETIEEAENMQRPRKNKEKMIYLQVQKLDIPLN
Method: (§1) Transport experiments employing polarized monolayers of MDCK-OCT1, MDCK-OCT2, or MDCK-MATE1 cell lines as well as doubly transfected MDCK-OCT1-MATE1 or MDCK-OCT2-MATE1 lines and the non-transfected parental control MDCK-Co cells grown on Transwell 3402 cell culture inserts (3.0 μm pore size, 24 mm diameter; Costar, Corning, NY) were performed as described previously. The number of cells per well was 0.5 x 10^6 in all experiments, and the cells were incubated for 3 days to confluence in standard cultivation medium MEM (Gibco) + 10% FBS. After 3 days’ cultivation, medium was removed from both sides and the cells of the monolayer were washed using pre-warmed PBS. […] The pH of the medium on the basolateral side was 7.4, while that on the apical side was set to 6.0 (adjusted by adding HCl or NaOH, when necessary) to ensure optimal MATE1 transport activity. Cells were incubated at 37°C in 5% CO2 for 2 hours. At the end of the incubation period, 50 μl aliquots were sampled and the rest of the medium was immediately removed. The cells were then washed twice with ice-cold PBS, the membranes supporting cellular monolayers were excised, and the cells were dissolved in a 0.02% SDS solution. The radioactivity of the collected samples and lysed monolayers was measured by liquid scintillation counting (Tri-Carb 2910 TR Perkin Elmer), and the protein concentration of the cell lysates was quantified using the BCA protein assay. Transport rates were recorded in pmol per mg protein in the cellular monolayer.

OCT2 and MATE1 = assay: Transcellular transport assay across doubly transfected MDCK-OCT2-MATE1 monolayers; type: cell-based, human; settings: 10 μM efavirenz, 2 h
Method: as §1

[1] = Efavirenz plasma concentration in patients (literature); type: in vivo, human; settings: calculated from average plasma concentration and unbound percentage
human OCT1 = tested on: human OCT1; design: method as in PMID 18490433; settings: 5 μM efavirenz, 1 min incubation; cited from earlier work
[2] = design: method as in PMID 16141277; settings: humans, plasma proteins; cited from earlier work
MRP transporters = tested on: MRP transporters; design: method as in PMID 17172311; settings: only at 50 μM; cited from earlier work
MDR1 = MDR1 (Homo sapiens, UniProt P08183); assay: Hoechst 33342 accumulation assay in MDCK-MDR1 cells
Sequence of MDR1 (P08183 whole entry): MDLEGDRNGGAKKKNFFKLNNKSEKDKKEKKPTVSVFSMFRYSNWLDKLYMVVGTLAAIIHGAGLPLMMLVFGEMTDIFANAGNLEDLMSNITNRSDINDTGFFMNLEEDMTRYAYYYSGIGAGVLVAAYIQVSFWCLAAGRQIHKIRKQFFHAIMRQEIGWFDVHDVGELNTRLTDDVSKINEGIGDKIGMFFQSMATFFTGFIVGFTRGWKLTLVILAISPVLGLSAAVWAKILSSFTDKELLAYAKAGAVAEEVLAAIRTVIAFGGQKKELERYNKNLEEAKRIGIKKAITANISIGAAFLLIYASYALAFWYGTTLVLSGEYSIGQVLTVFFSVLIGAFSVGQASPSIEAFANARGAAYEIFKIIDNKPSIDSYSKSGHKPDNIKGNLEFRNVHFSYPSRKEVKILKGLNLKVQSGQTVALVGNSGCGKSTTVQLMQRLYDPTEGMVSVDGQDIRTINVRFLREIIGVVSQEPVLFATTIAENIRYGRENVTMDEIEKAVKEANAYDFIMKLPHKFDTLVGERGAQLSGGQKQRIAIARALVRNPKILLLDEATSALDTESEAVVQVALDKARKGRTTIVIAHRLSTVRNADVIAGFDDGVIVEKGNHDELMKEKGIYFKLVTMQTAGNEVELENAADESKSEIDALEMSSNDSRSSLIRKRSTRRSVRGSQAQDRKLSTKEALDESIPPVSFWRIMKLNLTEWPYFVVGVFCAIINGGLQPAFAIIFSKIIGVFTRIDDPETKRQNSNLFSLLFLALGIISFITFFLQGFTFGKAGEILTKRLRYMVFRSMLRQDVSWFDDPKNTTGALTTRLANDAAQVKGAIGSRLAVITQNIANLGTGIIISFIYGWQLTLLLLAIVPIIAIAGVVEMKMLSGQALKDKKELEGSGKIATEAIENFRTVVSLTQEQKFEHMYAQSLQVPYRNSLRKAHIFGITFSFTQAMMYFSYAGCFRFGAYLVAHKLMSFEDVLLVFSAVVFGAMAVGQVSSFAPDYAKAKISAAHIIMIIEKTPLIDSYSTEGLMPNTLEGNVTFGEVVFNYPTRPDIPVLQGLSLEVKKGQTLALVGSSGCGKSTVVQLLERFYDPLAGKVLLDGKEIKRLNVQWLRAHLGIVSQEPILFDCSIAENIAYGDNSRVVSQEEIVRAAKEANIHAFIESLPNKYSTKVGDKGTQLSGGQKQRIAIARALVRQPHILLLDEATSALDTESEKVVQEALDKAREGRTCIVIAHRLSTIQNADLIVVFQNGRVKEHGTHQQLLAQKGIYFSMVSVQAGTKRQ
Method: ABC transporter-expressing MDCK cells were seeded in 96-well plates at a density of 25 x 10^3 cells per well and cultivated in DMEM medium supplemented with 10% FBS. Forty-eight hours after seeding, the cells were used in accumulation experiments with Hoechst 33342 (a common fluorescent substrate of MDR1 and BCRP) or efflux assays with Calcein (a fluorescent substrate of MRP2). Briefly, at the end of the 48 hours, the medium was aspirated and the cells were washed with pre-warmed PBS and then preincubated with efavirenz in Opti-MEM for 30 minutes. In the Hoechst 33342 assays, a solution of Hoechst 33342 (50 μg/ml) in Opti-MEM was added and allowed to accumulate for 30 minutes. The experiment was stopped by aspirating the medium and washing the cells twice with ice cold PBS. Intracellular fluorescence was then measured using excitation and emission wavelengths of 350 nm and 465 nm, respectively. In the calcein efflux assays, a solution of calcein AM in Opti-MEM with or without efavirenz was added after the pre-incubation phase and allowed to accumulate for 15 minutes. […] Calcein fluorescence was measured using excitation and emission wavelengths of 496 nm and 516 nm, respectively.
Statistical analyses were performed using GraphPad Prism, version 7.03 (GraphPad Software, San Diego, CA). P values were calculated using multiple two-tailed t-tests or one-way ANOVA followed by Dunnett’s or Bonferroni’s multiple comparison test, as appropriate. […] The half-maximal inhibitory concentration (IC50) was calculated by non-linear regression analysis using sigmoidal Hill kinetics.
Model inhibitors of MDR1, BCRP and MRP2, namely LY335979 (LY, 1 μM), Ko143 (2.5 μM), and MK571 (10 μM), respectively, were used as positive controls at the minimal concentrations causing maximal inhibition in the corresponding cellular system and assay. […] Data were analyzed by one-way ANOVA followed by Bonferroni’s multiple comparison test (* P ≤ 0.05, ** P ≤ 0.01, *** P ≤ 0.001) and are presented as means ± SD of at least three experiments (n = 3–5) performed in triplicate.

T1 sequence (Q96FL8 whole entry): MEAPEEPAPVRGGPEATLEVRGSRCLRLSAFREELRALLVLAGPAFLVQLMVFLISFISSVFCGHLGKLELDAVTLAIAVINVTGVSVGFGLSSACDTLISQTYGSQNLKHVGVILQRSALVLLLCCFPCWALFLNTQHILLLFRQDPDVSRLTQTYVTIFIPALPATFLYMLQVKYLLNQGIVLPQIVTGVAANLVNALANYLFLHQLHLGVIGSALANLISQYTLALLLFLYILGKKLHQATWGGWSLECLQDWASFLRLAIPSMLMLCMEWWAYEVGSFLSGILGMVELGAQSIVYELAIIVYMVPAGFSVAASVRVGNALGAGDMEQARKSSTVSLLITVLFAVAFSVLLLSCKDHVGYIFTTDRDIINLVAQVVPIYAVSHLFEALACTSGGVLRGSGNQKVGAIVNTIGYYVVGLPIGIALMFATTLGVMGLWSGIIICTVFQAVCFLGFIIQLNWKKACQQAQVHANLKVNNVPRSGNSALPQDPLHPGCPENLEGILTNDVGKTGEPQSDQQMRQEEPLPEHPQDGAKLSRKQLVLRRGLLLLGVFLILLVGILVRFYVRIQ

IC50 (MATE1): 3.85 µM
inhibition at 3 min, 50 μM (MATE2-K): 48.1%
Effect on basolateral-to-apical transport of [3H]-MPP+ (OCT2; 2 nM MPP+, MDCK-OCT2): Inhibition
Effect on intracellular accumulation of [3H]-MPP+ (OCT2; 2 nM MPP+, MDCK-OCT2 monolayers): significantly reduced
Effect on intracellular accumulation of [3H]-lamivudine (OCT2; 10 nM lamivudine, MDCK-OCT2): significantly reduced
Effect on transcellular transport of [3H]-lamivudine (OCT2; 10 nM lamivudine, basal to apical, MDCK-OCT2): significantly inhibited
50x the unbound concentration of efavirenz in elimination organs [1]: around 2.7 μM
Concentrations showing an inhibitory effect on MDR1 (MDR1; Hoechst 33342 accumulation): ≥ 25 µM
IC50 (MDR1; MDR1 absolute IC50, Hoechst 33342 accumulation, control inhibitor LY335979 1 μM = 100%): 33.3 µM
IC50 (MDR1; MDR1 relative IC50, Hoechst 33342 accumulation, maximal inhibition by efavirenz alone = 100%): 24.4 µM
SMILES: O=C1Nc2ccc(Cl)cc2[C@@](C#CC2CC2)(C(F)(F)F)O1 [efavirenz, Efavirenz]
Effect on basolateral-to-apical transport of [3H]-MPP+ (OCT2 and MATE1; 2 nM MPP+, MDCK-OCT2-MATE1): Inhibition
Effect on intracellular accumulation of [3H]-MPP+ (OCT2 and MATE1; 2 nM MPP+, MDCK-OCT2-MATE1 monolayers): unaffected
Effect on intracellular accumulation of [3H]-lamivudine (OCT2 and MATE1; 10 nM lamivudine, OCT2-MATE1 cells): remained unaffected
Effect on transcellular transport of [3H]-lamivudine (OCT2 and MATE1; 10 nM lamivudine, basal to apical, MDCK-OCT2-MATE1): significantly inhibited
Inhibitory effect on OCT1 with MPP+ as substrate (human OCT1): did not detect any inhibitory effect
Median unbound percentage [2]: 0.63%
Inhibition of MRP transporters (MRP transporters): inhibit
